Values after ≈ are worked out from the molar mass of the structure shown. Values joined by “and” are separate entries in the source; they are usually repeats but may differ in a detail not shown here. Identical values can stand only once.
Tests used:
[1] = Solubility in pure water at 25° C. with PXRD of solid residues; type: physicochemical; details: for Solubility (24 hours): Table 5: free base and crystalline salt forms; for pH (24 hrs) / pH (1 hr): pH of solubility sample; for pH (24 hrs) / pH (1 hr) / S 24 hrs / S 1 hr: pure water, 25° C.; for pH (1 hr) / S 1 hr: one hour; for S 24 hrs: 24 hours equilibration
Protocol: Using a similar strategy as described above, these salts were prepared by evaporation from a solution of free base and acid in a solvent (e.g., methanol-dichloromethane 1:1, ethyl acetate-dichloromethane 1:2, isopropanol, and the like). If necessary, an amorphous salt produced in this way was crystallized by stirring the amorphous material in an appropriate solvent (e.g., ethyl acetate, acetonitrile, and the like).

[2] = Thermal stability of salt; type: physicochemical
From the text: It was produced in a crystalline form that was easy to dry, as the residual solvent content of the obtained sample was low. The particle size distribution and crystal habits found were acceptable.

[3] = Water sorption / dynamic vapor sorption (DVS) hygroscopicity; type: physicochemical
Protocol: The pKa value of Compound I free base was calculated (ACD Labs pKa DB, v10.0) as 2.12±0.33. Therefore, Compound I free base was considered as a very weak base that could be protonated by strong acids. […] A sample of Compound I free base was analyzed by powder x-ray diffraction and found to be crystalline without any readily detectable amorphous content. […] (onset temperature).
The maximum water uptake for the amorphous salt was about 40% whereas the maximum water uptake for the crystalline di-hydrochloride salt was higher, with about 54% uptake.
The hygroscopic nature of the besylate salt was examined by dynamic vapor sorption analysis (DVS). […] Below 80% relative humidity not much water was adsorbed.

[4] = Experimental determination of the pKa; type: physicochemical
[5] = Dissolution and precipitation in pH 6.5 phosphate buffer at 37° C. containing HPMC; type: physicochemical; details: aqueous buffer
From the text: The inclusion of HPMC in the tablet of Example 16 was to maintain the supersaturation of Compound I API after its mono-tosylate salt dissolves. […]

[6] = Example 21 crossover pharmacokinetics of mono-tosylate and di-tosylate tablets in fasted dogs; type: in vivo, beagle dogs; details: for Individual plasma concentration of Compound I: individual dogs 1-5; for Individual plasma concentration of Compound I / Mean plasma concentration of Compound I: phase 2, di-tosylate tablet 200 mg PO; for AUC0-last / AUC0-rt / Cmax / tmax: Example 21, fasted dogs, 200 mg tablet PO
Protocol: Pharmacokinetics parameters of formulations of Compound I and its salts in dogs were determined by orally administering a test formulation tablet at 200 mg of active (Compound I or salt) per dog.
Blood samples were taken at various times after administration, plasma prepared, and submitted to analysis for parent drug using a qualified LC-MS-MS assay. Pharmacokinetics parameters derived from the plasma analytical data were determined using non-compartmental analysis.
Pharmacokinetics of Compound I were determined in pentagastrin-pretreated male beagle dogs following a single oral (PO) administration at 200 mg/tablet per dog in a 2-phase crossover designed study, with a washout period of at least 7 days in between each phase. Five male, non-naive, purebred beagle dogs were used in each phase of the 2-phase crossover study. All dogs were pretreated with pentagastrin (6 μg/kg intramuscular administrations) approximately 30 minutes before test article administration.
Two tablet formulations (mono-tosylate and di-tosylate, as described above) of test article were assessed. Animals were fasted overnight prior to PO dosing through approximately 4 hours post-dose. The tablet was administered orally, followed by approximately 10 mL of reverse osmosis water. Phase 1 animals were given tablets containing Compound I mono-tosylate, and phase 2 animals were given tablets containing Compound I di-tosylate salt. Blood samples were collected pre-dose and at 0.25, 0.5. 1. 2, 4, 8, 24, 36, and 48 hours after the oral dose. Plasma was harvested, and the concentration of Compound I in each plasma sample was determined by an LC/MS/MS assay. The assay lower limit of quantitation was 20 ng/mL for Compound I. Mean Compound I concentrations measured in plasma were used to construct semi-logarithmic plasma concentration-time curves (FIG. 1). Pharmacokinetic analysis was performed using non-compartmental methods.

**Q.** With `Cn1cc(-c2cn(-c3ccc(OC(F)(F)F)cc3)c(=O)c3ncn(C)c23)cn1.O=S(=O)(O)O` [mono-sulfate crystalline] as the compound, how does the “Solubility (24 hours)” value [1] read?
**A.** The value was 1540 µg/mL.

**Q.** And the “pH (24 hrs)” value [1]?
**A.** Its value is 1.2.

**Q.** What about the “pH (1 hr)” value [1] of the same compound?
**A.** The value was 1.1.

**Q.** And the “S 24 hrs” value [1]?
**A.** The value was 1.54 mg/mL.

**Q.** What about the “S 1 hr” value [1] of the same compound?
**A.** The value was 1.73 mg/mL.

**Q.** What about the thermal stability [2] of the same compound?
**A.** Its thermal stability is “good thermal stability”.

**Q.** For `Cn1cc(-c2cn(-c3ccc(OC(F)(F)F)cc3)c(=O)c3ncn(C)c23)cn1.Cn1cc(-c2cn(-c3ccc(OC(F)(F)F)cc3)c(=O)c3ncn(C)c23)cn1.O=S(=O)(O)CCS(=O)(=O)O` [hemi-edisylate], which “reversibility of water adsorption within the timeframe of observation” value [3] is on record?
**A.** The value was “not reversible”.

**Q.** What about the “Solubility (24 hours)” value [1] of the same compound?
**A.** Its value is 990 µg/mL.

**Q.** What about the “pH (24 hrs)” value [1] of the same compound?
**A.** Its value is 1.48.

**Q.** What about the “pH (1 hr)” value [1] of the same compound?
**A.** Its value is 1.42.

**Q.** And the “S 24 hrs” value [1]?
**A.** The value was 0.99 mg/mL.

**Q.** And the “S 1 hr” value [1]?
**A.** Its value is 1.09 mg/mL.

**Q.** Which results are given for `Cn1cc(-c2cn(-c3ccc(OC(F)(F)F)cc3)c(=O)c3ncn(C)c23)cn1` [Compound I, 1-methyl-7-(1-methyl-1H-pyrazol-4-yl)-5-(4-(trifluoromethoxy)phenyl)-1,5-dihydro-4H-imidazo[4,5-c]pyridin-4-one]?
**A.** pKa [4]: 2.5; Solubility (24 hours) [1]: 57 µg/mL; solubility at 24 h ([1]; water, 25 °C, water, thermodynamic from solid, Table 4: free base and amorphous salt forms): 57 µg/mL; solubility [5]: ~80 µg/mL (≈ 205 µM)

**Q.** Which “Individual plasma concentration of Compound I” value (from here on “Individual plasma concentration”) ([6]; 0.25 hours, fasted dogs, listed as Compound I di-tosylate salt) does the source give for `Cc1ccc(S(=O)(=O)O)cc1.Cc1ccc(S(=O)(=O)O)cc1.Cn1cc(-c2cn(-c3ccc(OC(F)(F)F)cc3)c(=O)c3ncn(C)c23)cn1` [Di-tosylate] here?
**A.** Its value is 1020 ng/mL and 146 ng/mL and 309 ng/mL and 29.1 ng/mL and 670 ng/mL.

**Q.** And the “Mean plasma concentration of Compound I” value ([6]; 0.25 hours, mean, fasted dogs)?
**A.** Its value is 536 ng/mL.

**Q.** And the “Individual plasma concentration” value ([6]; 0.5 hours, fasted dogs, listed as Compound I di-tosylate salt)?
**A.** The value was 7120 ng/mL and 1820 ng/mL and 3500 ng/mL and 636 ng/mL and 2610 ng/mL.

**Q.** What about the “Mean plasma concentration of Compound I” value ([6]; 0.5 hours, mean, fasted dogs) of the same compound?
**A.** The value was 3760 ng/mL.

**Q.** What about the “Individual plasma concentration” value ([6]; 1 hour, fasted dogs, listed as Compound I di-tosylate salt) of the same compound?
**A.** Its value is 8040 ng/mL and 6510 ng/mL and 9340 ng/mL and 1600 ng/mL and 6140 ng/mL.

**Q.** And the “Mean plasma concentration of Compound I” value ([6]; 1 hour, mean, fasted dogs)?
**A.** Its value is 7510 ng/mL.

**Q.** And the “Individual plasma concentration” value ([6]; 2 hours, fasted dogs, listed as Compound I di-tosylate salt)?
**A.** Its value is 8810 ng/mL and 11200 ng/mL and 13400 ng/mL and 1580 ng/mL and 8110 ng/mL.

**Q.** What about the “Mean plasma concentration of Compound I” value ([6]; 2 hours, mean, fasted dogs) of the same compound?
**A.** Its value is 10400 ng/mL.

**Q.** What about the “Individual plasma concentration” value ([6]; 4 hours, fasted dogs, listed as Compound I di-tosylate salt) of the same compound?
**A.** Its value is 6820 ng/mL and 10500 ng/mL and 13100 ng/mL and 1040 ng/mL and 6440 ng/mL.

**Q.** And the “Mean plasma concentration of Compound I” value ([6]; 4 hours, mean, fasted dogs)?
**A.** The value was 9220 ng/mL.

**Q.** And the “Individual plasma concentration” value ([6]; 8 hours, fasted dogs, listed as Compound I di-tosylate salt)?
**A.** The value was 2700 ng/mL and 5620 ng/mL and 5860 ng/mL and 368 ng/mL and 2040 ng/mL.

**Q.** What about the “Mean plasma concentration of Compound I” value ([6]; 8 hours, mean, fasted dogs) of the same compound?
**A.** Its value is 4060 ng/mL.

**Q.** And the “Individual plasma concentration” value ([6]; 24 hours, fasted dogs, listed as Compound I di-tosylate salt)?
**A.** Its value is 231 ng/mL and 1800 ng/mL and 530 ng/mL and 35.0 ng/mL and 30.0 ng/mL.

**Q.** What about the “Mean plasma concentration of Compound I” value ([6]; 24 hours, mean, fasted dogs) of the same compound?
**A.** The value was 648 ng/mL.

**Q.** And the “Individual plasma concentration” value ([6]; 36 hours, fasted dogs, listed as Compound I di-tosylate salt)?
**A.** The value was “BLQ (4×) and 273 ng/mL”.

**Q.** What about the “Mean plasma concentration of Compound I” value ([6]; 36 hours, mean, fasted dogs) of the same compound?
**A.** Its value is 273 ng/mL.

**Q.** What about the “Individual plasma concentration” value ([6]; 48 hours, fasted dogs, listed as Compound I di-tosylate salt) of the same compound?
**A.** The value was “BLQ (4×) and 21.5 ng/mL”.

**Q.** And the “Mean plasma concentration of Compound I” value ([6]; 48 hours, mean, fasted dogs)?
**A.** Its value is 21.5 ng/mL.

**Q.** What about the AUC0-last ([6]; individual subjects) of the same compound?
**A.** Its AUC0-last is 62700 ng·h/mL and 129000 ng·h/mL and 113000 ng·h/mL and 9680 ng·h/mL and 47200 ng·h/mL.

**Q.** And the AUC0-rt ([6]; individual subjects)?
**A.** Its AUC0-rt is 64100 ng·h/mL and 129000 ng·h/mL and 116000 ng·h/mL and 9890 ng·h/mL and 47300 ng·h/mL.

**Q.** And the Cmax ([6]; individual subjects)?
**A.** Its Cmax is 8810 ng/mL and 11200 ng/mL and 13400 ng/mL and 1600 ng/mL and 8110 ng/mL.

**Q.** What about the tmax ([6]; individual subjects) of the same compound?
**A.** The tmax was 2.00 h and 1.00 h.

**Q.** What about the AUC0-last ([6]; mean) of the same compound?
**A.** Its AUC0-last is 88000 ng·h/mL.

**Q.** And the AUC0-rt ([6]; mean)?
**A.** The AUC0-rt was 89100 ng·h/mL.

**Q.** What about the Cmax ([6]; mean) of the same compound?
**A.** Its Cmax is 10400 ng/mL.

**Q.** What about the tmax ([6]; mean) of the same compound?
**A.** Its tmax is 2.00 h.

**Q.** And the “Individual plasma concentration” value ([6]; Pre-dose, fasted pentagastrin-pretreated dogs)?
**A.** Its value is “BLQ”.

**Q.** And the “Mean plasma concentration of Compound I” value ([6]; Pre-dose, mean, fasted dogs)?
**A.** Its value is “BLQ”.

**Q.** Which results are given for `Cn1cc(-c2cn(-c3ccc(OC(F)(F)F)cc3)c(=O)c3ncn(C)c23)cn1.Cn1cc(-c2cn(-c3ccc(OC(F)(F)F)cc3)c(=O)c3ncn(C)c23)cn1.O=S(=O)(O)c1cccc2c(S(=O)(=O)O)cccc12` [hemi-napadisylate]?
**A.** reversibility of water adsorption within the timeframe of observation [3]: not reversible; Solubility (24 hours) [1]: 1830 µg/mL; pH (24 hrs) [1]: 1.53; pH (1 hr) [1]: 1.53; S 24 hrs [1]: 1.83 mg/mL; S 1 hr [1]: 2.76 mg/mL
